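All cell lines were grown in 96-well plates and treated with compound for 48 hours. At the GI50, growth is halved.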 Calls of active or inactive are those of the source. No stated cut-off is given here; in the data, active = GI50 up to about 1.1 µM and inactive = higher.
Tests used:
Experiment in all cases: NCI anticancer screen, dose series, 48 h
[1] = test system: MDA-MB-435
[2] = test system: IGROV-1
[3] = test system: MDA-MB-231
[4] = test system: HCT-116
[5] = test system: SF-539
[6] = test system: EKVX
[7] = test system: ACHN
[8] = test system: OVCAR-4
[9] = test system: DU-145
[10] = test system: K562
[11] = test system: SK-MEL-5
[12] = test system: RPMI-8226
[13] = test system: SF-295
[14] = test system: MCF7
[15] = test system: HL-60
[16] = test system: CCRF-CEM
[17] = test system: M14
[18] = test system: HT-29
[19] = test system: TK-10
[20] = test system: SK-OV-3
[21] = test system: SR
[22] = test system: SW-620
[23] = test system: HOP-92
[24] = test system: A498
[25] = test system: A549
[26] = test system: MDA-N
[27] = test system: CAKI-1
[28] = test system: PC-3
[29] = test system: Malme-3M
[30] = test system: NCI-H522
[31] = test system: OVCAR-3
[32] = test system: 786-0
[33] = test system: NCI-H226
[34] = test system: SK-MEL-28
[35] = test system: SNB-75
[36] = test system: SK-MEL-2
[37] = test system: BT-549
[38] = test system: MOLT-4
[39] = test system: OVCAR-5
[40] = test system: NCI-H23
[41] = test system: HCT-15
[42] = test system: UACC-257
[43] = test system: UACC-62
[44] = test system: U-251
[45] = test system: RXF 393
[46] = test system: OVCAR-8
[47] = test system: HOP-62
[48] = test system: NCI/ADR-RES
[49] = test system: SN12C
[50] = test system: KM12
[51] = test system: NCI-H460
[52] = test system: LOX IMVI
[53] = test system: T47D
[54] = test system: SNB-19
[55] = test system: UO-31
[56] = test system: COLO 205
[57] = test system: HCC 2998
[58] = test system: SF-268
[59] = test system: Hs-578T

Q: With `C/C(=C/c1ccccc1)CN(C(=O)/C=C\Sc1ccccc1)C(C)(C)C` as the molecule, how does the GI50 [1] read?
A: > 100 µM (inactive)

Q: What about the GI50 [2] of the same molecule?
A: > 100 µM (inactive)

Q: What about the GI50 [3] of the same molecule?
A: > 100 µM (inactive)

Q: What about the GI50 [4] of the same molecule?
A: 24.8 µM (inactive)

Q: And the GI50 [5]?
A: > 91.2 µM (inactive)

Q: And the GI50 [6]?
A: > 70 µM (inactive)

Q: What about the GI50 [7] of the same molecule?
A: > 100 µM (inactive)

Q: What about the GI50 [8] of the same molecule?
A: > 87.5 µM (inactive)

Q: And the GI50 [9]?
A: > 100 µM (inactive)

Q: And the GI50 [10]?
A: 27.2 µM (inactive)

Q: And the GI50 [11]?
A: 60.8 µM (inactive)

Q: What about the GI50 [12] of the same molecule?
A: 21.2 µM (inactive)

Q: What about the GI50 [13] of the same molecule?
A: > 100 µM (inactive)

Q: What about the GI50 [14] of the same molecule?
A: 65.2 µM (inactive)

Q: What about the GI50 [15] of the same molecule?
A: 28 µM (inactive)

Q: And the GI50 [16]?
A: 63.1 µM (inactive)

Q: And the GI50 [17]?
A: > 100 µM (inactive)

Q: And the GI50 [18]?
A: 36.4 µM (inactive)

Q: And the GI50 [19]?
A: > 100 µM (inactive)

Q: What about the GI50 [20] of the same molecule?
A: > 100 µM (inactive)

Q: And the GI50 [21]?
A: 19.6 µM (inactive)

Q: What about the GI50 [22] of the same molecule?
A: > 100 µM (inactive)

Q: And the GI50 [23]?
A: 4.85 µM (inactive)

Q: And the GI50 [24]?
A: > 100 µM (inactive)

Q: And the GI50 [25]?
A: 60.1 µM (inactive)

Q: And the GI50 [26]?
A: > 100 µM (inactive)

Q: What about the GI50 [27] of the same molecule?
A: > 100 µM (inactive)

Q: What about the GI50 [28] of the same molecule?
A: > 68.7 µM (inactive)

Q: And the GI50 [29]?
A: > 100 µM (inactive)

Q: And the GI50 [30]?
A: 10.1 µM (inactive)

Q: What about the GI50 [31] of the same molecule?
A: > 75.3 µM (inactive)

Q: And the GI50 [32]?
A: > 100 µM (inactive)

Q: What about the GI50 [33] of the same molecule?
A: > 94.4 µM (inactive)

Q: And the GI50 [34]?
A: > 100 µM (inactive)

Q: And the GI50 [35]?
A: > 100 µM (inactive)

Q: What about the GI50 [36] of the same molecule?
A: > 75.9 µM (inactive)

Q: And the GI50 [37]?
A: > 43.7 µM (inactive)

Q: What about the GI50 [38] of the same molecule?
A: 3.87 µM (inactive)

Q: What about the GI50 [39] of the same molecule?
A: > 100 µM (inactive)

Q: What about the GI50 [40] of the same molecule?
A: > 48 µM (inactive)

Q: What about the GI50 [41] of the same molecule?
A: 37.2 µM

Q: What about the GI50 [42] of the same molecule?
A: 48.3 µM (inactive)

Q: What about the GI50 [43] of the same molecule?
A: > 100 µM (inactive)

Q: What about the GI50 [44] of the same molecule?
A: > 84.9 µM (inactive)

Q: What about the GI50 [45] of the same molecule?
A: > 100 µM (inactive)

Q: What about the GI50 [46] of the same molecule?
A: > 83.8 µM (inactive)

Q: And the GI50 [47]?
A: > 100 µM (inactive)

Q: What about the GI50 [48] of the same molecule?
A: > 34.6 µM (inactive)

Q: What about the GI50 [49] of the same molecule?
A: > 100 µM (inactive)

Q: What about the GI50 [50] of the same molecule?
A: > 100 µM (inactive)

Q: What about the GI50 [51] of the same molecule?
A: > 100 µM (inactive)

Q: What about the GI50 [52] of the same molecule?
A: > 66.4 µM (inactive)

Q: What about the GI50 [53] of the same molecule?
A: > 31.2 µM (inactive)

Q: What about the GI50 [54] of the same molecule?
A: > 100 µM (inactive)

Q: What about the GI50 [55] of the same molecule?
A: > 52 µM (inactive)

Q: What about the GI50 [56] of the same molecule?
A: > 100 µM (inactive)

Q: What about the GI50 [57] of the same molecule?
A: 45.4 µM (inactive)

Q: What does the source list for `CN(C)CCCSc1nc2ccccc2[nH]1`?
A: GI50 [1]: > 100 µM (inactive); GI50 [2]: > 100 µM (inactive); GI50 [3]: > 100 µM (inactive); GI50 [4]: > 100 µM (inactive); GI50 [6]: > 100 µM (inactive); GI50 [7]: > 100 µM (inactive); GI50 [8]: > 100 µM (inactive); GI50 [9]: > 100 µM (inactive); GI50 [10]: > 100 µM (inactive); GI50 [11]: > 100 µM (inactive); GI50 [12]: > 100 µM (inactive); GI50 [13]: > 100 µM (inactive); GI50 [14]: > 100 µM (inactive); GI50 [17]: > 100 µM (inactive); GI50 [18]: > 100 µM (inactive); GI50 [19]: > 100 µM (inactive); GI50 [20]: > 100 µM (inactive); GI50 [21]: > 100 µM (inactive); GI50 [22]: > 100 µM (inactive); GI50 [23]: > 100 µM (inactive); GI50 [24]: > 100 µM (inactive); GI50 [25]: > 100 µM (inactive); GI50 [26]: > 100 µM (inactive); GI50 [27]: > 100 µM (inactive); GI50 [29]: > 100 µM (inactive); GI50 [30]: > 100 µM (inactive); GI50 [31]: > 100 µM (inactive); GI50 [32]: > 100 µM (inactive); GI50 [33]: > 100 µM (inactive); GI50 [34]: > 100 µM (inactive); GI50 [35]: > 100 µM (inactive); GI50 [36]: > 100 µM (inactive); GI50 [37]: > 100 µM (inactive); GI50 [39]: > 100 µM (inactive); GI50 [40]: > 100 µM (inactive); GI50 [41]: > 100 µM; GI50 [58]: > 100 µM (inactive); GI50 [42]: > 100 µM (inactive); GI50 [43]: > 100 µM (inactive); GI50 [44]: > 100 µM (inactive); GI50 [45]: > 100 µM (inactive); GI50 [46]: > 100 µM (inactive); GI50 [47]: > 100 µM (inactive); GI50 [48]: > 100 µM (inactive); GI50 [49]: > 100 µM (inactive); GI50 [50]: > 100 µM (inactive); GI50 [51]: > 100 µM (inactive); GI50 [52]: > 100 µM (inactive); GI50 [59]: > 100 µM (inactive); GI50 [53]: > 100 µM (inactive); GI50 [54]: > 100 µM (inactive); GI50 [55]: > 100 µM (inactive); GI50 [56]: > 100 µM (inactive); GI50 [57]: > 100 µM (inactive)

Source: ChEMBL document CHEMBL1201862, “PubChem BioAssay data set” (2004)
